# Measurements published in article PMC11019550, “Potent Inhibition of E. coli DXP Synthase by a gem-Diaryl Bisubstrate Analog” (ACS Infectious Diseases, 2024).
# Columns and labels:
# [1] = system: porcine pyruvate dehydrogenase (PDH) E1 subunit; assay: Inhibition of porcine pyruvate dehydrogenase (PDH); type: biochemical
# Excerpt: As noted, DXPS has a large active site and follows a mechanism requiring ternary complex formation, distinct from other ThDP-dependent pyruvate decarboxylases. We hypothesized that the sterically demanding scaffold of 8, predicted to engage both substrate binding sites, should display selectivity for DXPS. In a preliminary assessment, we tested 8 as an inhibitor of porcine pyruvate dehydrogenase (PDH) E1 subunit. […] For comparison, the selectivity ratio for 1 was estimated to be >15,000-fold for DXPS over porcine PDH.
# Figure S5. Evaluation of inhibitory activity of 8 against mammalian porcine pyruvate dehydrogenase (PDH). Porcine PDH (0.01 U/mL) and inhibitor (8 or MAP positive control) were preincubated for 10 minutes at 25 °C in enzyme buffer (2 mM MgCl2, 5 mM L-cysteine, 1 mM ThDP, 300 μM TCEP, 100 mM HEPES pH 8, 2.5 mM NAD +, and 100 μM coenzyme A). The reaction was initiated by addition of pyruvate (60 μM). The change in absorbance at 340 nm over time was measured and used to calculate the initial rate of NADH formation. The % activity of PDH in the presence of 8 or MAP was plotted using GraphPad Prism version 9. There is 21% inhibition of PDH activity observed in the presence of compound 8 at a concentration of 1 mM.
# Experiments were performed in triplicate. Error bars represent standard error.
# Figure S6. Replicate progress curves for DXP formation in the presence or absence of inhibitors 8 or 10 with EcDXPS. A) Progress curves for formation of DXP in the presence of 8 display time-dependence of inhibition. B) Progress curves for formation of DXP in the presence of descarboxyl […]
# [2] = target: T1, WT EcDXPS (Escherichia coli, UniProt P77488); assay: Circular dichroism titration (PLThDP formation, apparent KD) on WT EcDXPS; type: binding
# T1 construct: made in house
# T1 sequence (P77488 whole entry): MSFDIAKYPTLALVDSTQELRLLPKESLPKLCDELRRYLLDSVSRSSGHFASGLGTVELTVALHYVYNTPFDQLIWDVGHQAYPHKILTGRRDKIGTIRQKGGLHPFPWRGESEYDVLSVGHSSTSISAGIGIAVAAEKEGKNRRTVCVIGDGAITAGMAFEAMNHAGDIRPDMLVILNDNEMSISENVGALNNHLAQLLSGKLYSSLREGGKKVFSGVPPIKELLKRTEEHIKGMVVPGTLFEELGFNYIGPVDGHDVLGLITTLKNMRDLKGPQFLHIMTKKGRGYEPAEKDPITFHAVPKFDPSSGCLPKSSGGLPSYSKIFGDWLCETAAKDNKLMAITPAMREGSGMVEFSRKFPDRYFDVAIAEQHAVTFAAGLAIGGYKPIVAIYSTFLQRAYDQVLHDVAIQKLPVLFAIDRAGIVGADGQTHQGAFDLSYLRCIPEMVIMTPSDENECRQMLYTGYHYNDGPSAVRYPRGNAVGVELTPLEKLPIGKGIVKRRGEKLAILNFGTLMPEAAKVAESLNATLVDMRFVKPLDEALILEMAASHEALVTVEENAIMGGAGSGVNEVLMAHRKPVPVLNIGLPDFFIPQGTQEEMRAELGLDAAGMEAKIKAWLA
# Excerpt: The X-ray structure obtained from cocrystallization of DrDXPS with 1 (Figure 2) indicates the formation of the PLThDP adduct by reaction of the acetylphosphonate mimic of pyruvate with the C2 carbanion of ThDP. We reasoned that 8 should also engage the pyruvate binding site and react with ThDP to form a PLThDP adduct. Circular dichroism (CD) is a powerful tool that can be used to detect LThDP and LThDP-like adducts on thiamin-dependent enzymes,[56],[67]−[75] including DXPS.[31],[36],[43],[44],[49]−[52],[76] DXPS bound to ThDP (E-ThDP) is characterized by a CD λmin at 320 nm, indicative of the 4′-aminopyrimidine (AP) tautomer of ThDP (Figure 8A). Upon addition of pyruvate to E-ThDP, a new positive signal emerges at 313 nm, indicating the formation of LThDP in its 1′,4′-iminopyrimidine (IP) form. Similarly, upon addition of AP-based inhibitors to E-ThDP, the E-PLThDP adduct is formed, characterized by an increasing, broad CD signal.[69],[77],[78] Determination of apparent KD of PLThDP by plotting the CD signal corresponding to PLThDP versus [MAP] has been used as a proxy for PLThDP affinity.[77],[78] To confirm that 8 reacts with ThDP to form PLThDP in the DXPS active site, the change in CD signal upon addition of 8 (0.25–30 μM) to EcDXPS (30 μM) was measured. […] Plotting the CD signal at 294 nm versus affords a curve that approaches the limiting asymptotes defined by infinitely tight binding (Figure 8C),[79],[80] which is expected for this nanomolar inhibitor under the conditions of high [DXPS] required for this method. Since in this case [DXPS] ≫ KD^app, an accurate determination of KD^app is not possible, and data were fit to a quadratic equation to give an estimated upper limit for the value of KD^app (≤0.04 ± 0.01 μM). Addition of 10 to DXPS also results in an increased, broad CD signal (Figure S7A), indicating PLThDP formation. […]
# CD titrations of 8 and 10 onto WT, R99A, and R478A EcDXPS variants were conducted at 25 °C under aerobic conditions in 1.5 mL solutions containing 30 μM EcDXPS in 50 mM HEPES pH 8, 100 mM NaCl, 1 mM MgCl2, and 0.2 mM ThDP. […] The CD signals at 294 nm determined from the difference spectra obtained by subtracting the signal of E-ThDP at 294 nm were plotted as a function of [inhibitor] and fit to (1) the quadratic equation described in eq 2 (8 on WT DXPS), where E is the concentration of DXPS taking into account stoichiometric binding and CDmax is the maximal CD signal, or (2) a one-site specific binding curve (all other experiments) using GraphPad Prism Version 9 to calculate an apparent KD. Experiments were conducted in triplicate and the standard error was calculated. […]
# At the conclusion of the titration described above, the CD signal at 313 nm (previously characterized for LThDP) was recorded. […]
# [3] = target: T1, WT EcDXPS; assay: Time-dependent inhibition, reaction progress curves on WT EcDXPS; type: biochemical; conditions: 8 at 400 or 800 nM, 10 at 1 or 100 μM
# Description: To determine if 8 is also a slow-onset inhibitor of DXPS, reaction progress was monitored upon simultaneous addition of substrates (pyruvate and D-GAP) in the presence or absence of inhibitor. In the absence of inhibitor, the reaction progress curve is linear. […] To assess the importance of the carboxyl group of 8, we evaluated descarboxy analog 10 in the same manner.
# EcDXPS (100 nM) and IspC (2 μM) were preincubated in enzyme reaction buffer (100 mM HEPES pH 8, 2 mM MgCl2, 5 mM NaCl, 1 mM ThDP, and 200 μM NADPH) with 250 μM D-GAP for 10 min at 25 °C. The reaction was initiated by the addition of pyruvate (1 mM) and inhibitor (400 nM and 800 nM 8; 1 μM and 100 μM 10). The reaction mixture was incubated at 25 °C, and the absorbance of NADPH at 340 nm was monitored. The change in the absorbance of NADPH over time was used to calculate [DXP] (μM) produced over time. Experiments were performed in triplicate.
structure (smiles),measurement,setting,value
CC(=O)P(=O)(O)OCCc1cn(C(Cc2ccccc2)(Cc2ccccc2)C(=O)O)nn1 [Compound 8],estimated selectivity ratio for DXPS over porcine PDH,[1]; DXPS over porcine PDH,"> 64,000 fold"
same,inhibition of PDH,"[1]; at a concentration of 1 mM, 60 μM pyruvate, 10 min preincubation",21%
same,Kd,[2],≤ 40 nM
same,change in PLThDP CD signal upon addition of 1 mM pyruvate,"[2]; WT EcDXPS 30 μM, inhibitor 30 μM",negligible shift in the CD signal
same,time dependence of inhibition (progress curve for DXP formation),[3],time dependence of inhibition
